The source of these data is patent US20220119446A1, “BIOMARKERS AND TREATMENT OF NEURONAL INJURY AND NEURODEGENERATION” (Board of Supervisons of Louisiana State University and …, priority 2018, published 2022).

Entries after “also recorded” stand apart in the source; their conditions may differ. * marks the point of attachment. Boc = CC(C)(C)OC(=O)*

The test system of one test is Wnt5a. As to the kind of experiment: SYBR green real-time PCR of Wnt5a mRNA in human primary RPE (hpRPE) cells under UOS. The test is classed as cell-based. How it is done:
ARPE-19 cells, can be plated and grown in DMEM/F-12 containing 10% FBS and 1× penicillin/streptomycin at 37° C., 5% CO2, 99% relative humidity for 24 h. […] 15-LOX-1 deficient cells can be maintained in the same medium as ARPE-19 with the addition of 500 μg/mL Geneticin (Life Technologies Corporation, Carlsbad, Calif.). Transfection can be performed in all cases using Lipofectamine 2000 (Life Technologies Corporation, Carlsbad, Calif.) following the manufacturer's recommendations. […] Experiments with transfection efficiency that yielded less than 80% can be discarded. For siRNA, we used 6 μl of Lipofectamine 2000 per 50 pmol of siRNA per mL of incubation medium, and, for plasmids, we used 6 μl of Lipofectamine 2000 per 2 μg of plasmid per mL of incubation medium. Cells can be incubated for 5 hours at 37° C., 5% CO2 and 99% relative humidity. […] When siRNA/plasmid co-transfection is required, siRNA and plasmid-carrying transfection mixes can be prepared separately and added one after the other in the same well. Oxidative stress treatments can be performed using 600 (ARPE-19) or 1600 (hRPE) μM H2O2, along with 10 ng/mL TNFα, for the required time indicated in each experiment. The treatment we used employed the low serum (0.5% serum) without hFGF. Treatment to induce uncompensated oxidative stress (UOS) can be performed after 8 hours of low-serum medium incubation unless specifically noted. […]

The test system of a further test is rats subjected to MCAo. As to the kind of experiment: Transient MCAo: MRI of lesion volume. Conditions: rat, 2 h MCAo, Box5 IV 1 h later, day 7. It counts as in vivo. On the procedure: The right MCA can be occluded for 2 h by intraluminal filament, as described previously (Belayev et al. 2011). Briefly, the right common carotid artery (CCA) and external carotid artery (ECA) can be exposed through midline neck incision, and then completely isolated from the surrounding nerves. The occipital branches of the ECA and pterygopalatine artery can be ligated. A 4-cm of 3-0 nylon filament, coated with poly-L-lysine can be advanced to the origin of MCA through the proximal ECA via internal carotid artery. The filament can be inserted 20 to 22 mm from the bifurcation of the CCA, according to the animal's body weight. The neck incision can then be closed, and the rats can be returned to their cages. After about 2 h of MCAo, the rats can be re-anesthetized with the same anesthetic combination and the intraluminal filament can be gently removed. […]
In embodiments, high-resolution ex vivo magnetic resonance imaging (MRI) is performed on 4% paraformaldehyde-fixed brains at each time point (days 1, 3 and 7) using an 11.7T Bruker Advance 8.9 cm horizontal bore instrument equipped with an 89 mm (ID) receiver coil (Bruker Biospin, Billerica, Mass., USA). T2-weighted images (T2WI), diffusion weighted images (DWI), 3D volumes and apparent diffusion coefficient (ADC) maps can be collected and analyzed as previously described and known in the art (Obenaus et al. 2011). […]

`CC/C=C\C[C@H](O)\C=C/C=C/C=C/[C@H](O)C/C=C\C/C=C\CCC(=O)O` [NPD1, 10R,17S-dihydroxy-docosa-4Z,7Z,11E,13E,15Z,19Z-hexaenoic acid]: in the test with Wnt5a (hpRPE cells, UOS 1,600 μM H2O2 and 10 ng/ml TNFα, 6 hours), the “Wnt5a transcription (mRNA)” value was “down regulated Wnt5a transcription; also recorded: decreased Wnt5a expression”. Also, the “increase of Wnt5a expression on cRel silencing” value with Wnt5a (hpRPE, UOS plus NPD1, 12-fold in control, 8-fold in UOS) came out at 4 fold.

As for “t-Boc-NH-Met-Asp-Gly-Cys-Glu-Leu-CO2H (Boc-MDGCEL-OH) [Box5]”, the “MRI lesion (infarct) volume” value in the test with rats subjected to MCAo is on record as “steep decreased in the infarcted volume; also recorded: resembling DHA treatment; also recorded: reduces stroke size; also recorded: decreased volume of brain damage”.
